Experimental data from patent publication US9045517B2, “Glycosylated aminocoumarins and methods of preparing and uses of same” (University College London, priority 2010, dated 2015).
≈ marks a conversion by molar mass, not a printed value.

Legend:
[1] = tested on: U87MG (brain cancer); test: MTT anti-proliferative assay, U87MG; format: cell-based; conditions: Homo sapiens, U-87 MG, U87MG cells, 24 h continuous exposure
Protocol: (§1) The cell number is estimated colorimetrically based on the transformation of the yellow MTT reagent (3-(4,5-Dimethylthiazol-2-yl)-2,5-diphenyltetrazolium bromide) to a purple formazan dye by mitochondrial enzymes.
(§2) Human cell lines derived from ovarian cancer (A2780, ECACC 93112519), lung cancer (A549, ATCC CCL-185), breast cancer (MCF7, ATCC HTB-22), pancreatic cancer (MiaPaCa2, ATCC CRL-1420) and brain cancer (U87MG, ATCC HTB-14), were obtained from the European Collection of Cell Cultures (ECACC, Salisbury, UK). The A2780, A549, MCF7 and MiaPaCa2 cells were grown in Dulbecco's Modified Eagle Medium (DMEM) supplemented with 10% fetal bovine serum (Biosera, UK), 1% L-glutamine and 1% non-essential aminoacids (Gibco, Invitrogen, USA). U87MG cells were grown in Minimal essential medium supplemented with 10% fetal bovine serum (Biosera, UK), 1% L-glutamine, 1% non-essential aminoacids and 1% Sodium piruvate (Gibco, Invitrogen, USA). Cells were grown in a 5% CO2, 95% humidity incubator. […] The compounds were dissolved in methanol at a maximum concentration of 20 mM, and serial decimal dilutions were prepared in methanol. For each compound and each concentration, 5 μl of the methanol solution were added over the cells, growing in 100 μl of cell culture medium per well (n=6). After 24 h of continuous drug exposure, the growth inhibition was determined using the MTT assay (Lancaster Synthesis Ltd, UK). The amount of dye was quantified spectrophotometrically as absorbance at λ=570 nm (ELx808, Bio-Tek Instruments, Inc.). The IC50 values were calculated by a dose-response analysis using the Origin 6.0® software.

[2] = tested on: MiaPaCa2 (pancreatic cancer); test: MTT anti-proliferative assay, MiaPaCa2; format: cell-based; conditions: Homo sapiens, MIA PaCa-2, MiaPaCa2 cells, 24 h continuous exposure
Protocol: as §1, §2

[3] = tested on: A549 (lung cancer); test: MTT anti-proliferative assay, A549; format: cell-based; conditions: Homo sapiens, A549 cells, 24 h continuous exposure
Protocol: as §1, §2

[4] = tested on: MCF7 (breast cancer); test: MTT anti-proliferative assay, MCF7; format: cell-based; conditions: Homo sapiens, MCF7 cells, 24 h continuous exposure
Protocol: as §1, §2

[5] = tested on: Escherichia coli; test: MIC by micro-broth dilution against Escherichia coli, with or without PEI; format: cell-based
Protocol: Microtitre plates were incubated aerobically at 37° C. and read after one and four days. The concentration range tested was 128 to 0.5 μg/ml. A cell permeabilising agent, polyethylenimine (PEI) was used to assess the influence of cell membrane (and associated structures) as a barrier to novobiocin entry into the cell. Isopropyl β-D-1-thiogalactopyranoside (100 μM) was used to induce β-glycosidase and β-galactosidase expression from plasmids pSsβG and pBCSK, respectively. These enzymes can release the native drugs from the conjugates.

[6] = tested on: A2780 (ovarian cancer); test: MTT anti-proliferative assay, A2780; format: cell-based; conditions: Homo sapiens, A2780 cells, 24 h continuous exposure
Protocol: as §1, §2

[7] = biological target: T1, DNA Gyrase (Escherichia coli, UniProt P0AES6); test: DNA gyrase supercoiling assay (relaxed pBR322, agarose gel); format: biochemical; conditions: DNA Gyrase 1U, relaxed pBR322, 37 C, 1 hr
T1 construct: purchased
Protocol: DNA Gyrase (1U) is incubated with relaxed pBR322 (0.5 μg) in a reaction volume of 30 μL at 37 °C for 1 hr in TRIS-HCl (35 mM, pH 7.5), KCl (24 Mm), MgCl2 (4 mM), DTT (2 mM), spermidine (1.8 mM), ATP (1 mM), glycerol (6.5%, w/v), albumin (0.1 mg/mL).
After incubation the mixture was deproteinized with equal volumes of chloroformisoamyl alcohol (24:1) and the end point was determined by separating relaxed and supertwisted plasmid pBR322DNA by agarose gel electrophoresis (0.8% agarose with TBE buffer), running without Ethidium Bromide. After the run the gel is soaked, in tank buffer containing Ethidium Bromide, for 1 and half hours.

[8] = Toxicity relative to precursor (no method given); conditions: versus novobiocin

SMILES: CO[C@@H]1[C@@H](OC(N)=O)[C@@H](O)[C@H](Oc2ccc3c(O)c(NC(=O)c4ccc(O)c(CC=C(C)C)c4)c(=O)oc3c2C)OC1(C)C [Novobiocin, reference compound]
- IC50 [1]: 580 µM
- IC50 [2]: 320 µM
- IC50 [3]: > 1000 µM
- IC50 [4]: > 1000 µM
- increased activity against Escherichia coli in the presence of PEI ([5]; with polyethylenimine (PEI), independent of β-galactosidase): 16-32 fold
- IC50 [6]: 190 µM

SMILES: CO[C@@H]1C(OC(N)=O)C(O)[C@H](Oc2ccc3c(O[C@@H]4O[C@H](CO)[C@H](O)[C@H](O)[C@H]4O)c(NC(=O)c4ccc(O)c(CC=C(C)C)c4)c(=O)oc3c2C)OC1(C)C (some centres unmarked) [Galactosyl_Novobiocin]
- IC50 [1]: 30 µM
- IC50 [2]: 30 µM
- IC50 [3]: 100 µM
- IC50 [4]: 40 µM
- MIC in DNA gyrase assay [7]: 3 µM (≈ 2.32 µg/mL)
- re-growth on prolonged incubation at concentrations above the MIC ([5]; prolonged incubation up to 4 days): did not lead to re-growth
- IC50 [6]: 100 µM

SMILES: CO[C@@H]1C(OC(N)=O)C(O)[C@H](Oc2ccc3c(O[C@@H]4OC(CO)[C@@H](O)C(O)C4O)c(NC(=O)c4ccc(O)c(CC=C(C)C)c4)c(=O)oc3c2C)OC1(C)C (stereo partly drawn) [Glucosyl_Novobiocin, β-4′-O-glucosyl Novobiocin]
- toxicity compared with precursor [8]: less toxic than its precursor
- IC50 [1]: 20 µM
- IC50 [2]: 10 µM
- IC50 [3]: 60 µM
- IC50 [4]: 10 µM
- MIC in DNA gyrase assay [7]: 3 µM (≈ 2.32 µg/mL)
- IC50 [6]: 130 µM
